Laboratory results taken from patent US8592435B2, “Nitrogen-containing six-membered aromatic ring derivatives and pharmaceutical products containing the same” (Daiichi Sankyo Company, Limited, priority 2007, dated 2013).

Key:
[1] = test system: mixture of human vascular endothelial cells and fibroblasts; assay: Test Example 2: ability to promote angiogenesis (angiogenesis test kit KZ-1000); type: cell-based; details: Homo sapiens, 216 h, lumen length, % of control, day 9, read-out: Promotion of angiogenesis (%); for activity at 0.3 µM: Compound Conc. = 0.3 μM
Procedure: Using an angiogenesis test kit containing a mixture of human vascular endothelial cells and fibroblasts [KZ-1000; Kurabo], the ability of test compounds to promote angiogenesis was evaluated. Each test compound was added on days 1, 4, and 7 of the incubation period. On day 9, cells were immunostained with CD31 and photographed. Control cells were cultured under the same conditions, only without the addition of a test compound, and photographed.
The lumen length of the blood vessel was quantified from the obtained images using an angiogenesis-quantification software. The ability (%) of each test compound to promote angiogenesis was calculated from the following equation: The ability to promote angiogenesis (%)=[(measurement with a compound of interest)/(measurement of control)]×100
Example Compounds shown in Table 26 were used as test compounds.
Since bFGF gives a measurement of about 120 in this test, 120 is used as the threshold to determine whether a given compound has the ability to promote angiogenesis.

hippocampal neurons = assay: Test Example 1: ability to promote axonal outgrowth; type: cell-based, Wistar rats; details: Hippocampal neuron, 216 h; Compound Conc. = 3 μM; % of control; rat hippocampal neurons, day 9; read-out: Promotion of axonal outgrowth (%)
Procedure: According to the method of M. P. Mattson [M. P. Mattson, Brain Res. Rev., 13, 179, (1988)], the hippocampal region was isolated from 18-day embryos of female Wistar rats and the neurons were dispersed using the papain dissociation system. Hippocampal neuron were suspended in 5% Nu-serum+B27 supplement+Neurobasal medium at 5×10^4 cells/well/2 mL. 2 mL of the cell suspension were inoculated on a poly-D-lysine-coated 36φ dish and the neuron were incubated at 37° C. in a 5% CO2 incubator.
On day 3 of the incubation period, 1 mL of the culture medium was replaced with 1 mL of 5% Nu-serum+B27 supplement+Neurobasal medium containing 2 mM AraC. Each test compound was added to the culture on day 3 and day 7 of the incubation period. On day 9, cells were fixed in a 4% paraformaldehyde solution. The nerve axons of the fixed cells were stained with the Rabbit anti-growth-associated protein-43 polyclonal antibody and the stained cells were quantified using Kurabo neuron outgrowth-quantication software.
The ability (%) of each test compound to promote axonal outgrowth was calculated from the following equation: The ability to promote axonal outgrowth (%)=[(measurement with a compound of interest)/(measurement of control)]×100
Example Compounds shown in Table 25 were used as test compounds and were each added at concentrations of 3 μM and 0.3 μM.
Since bFGF gives a measurement of about 120 in this test, 120 is used as the threshold to determine whether a given compound has the ability to promote axonal outgrowth

[2] = test system: microsphere (micro-embolism) model; assay: Test Example 6: rat microsphere (micro-embolism) model; type: in vivo, Crl:CD(SD) rats; details: rats, oral 1.0 mg/kg once daily for 10 days (Compound 65 also 0.1 mg/kg); 2 weeks after surgery
Source text: According to the method of Ichiro Date et al. [Journal of Neuroscience Research 78; 442-453 (2004)], 8-week-old male Crl:CD(SD) rats were used. Animals were anesthetized with halothane and midline incision was made. Right carotid artery was separated and a thread was looped around the common carotid artery and external carotid artery. The pterygopalatine artery was temporarily clipped with an aneurysm clip. The blood flow through the common carotid artery and external carotid artery was temporarily interrupted and 0.1 mL of a microsphere suspension composed of microspheres dispersed in a 30% sucrose solution (1800 microspheres/0.1 mL) was injected into the common carotid artery. After injection of the suspension, the puncture of the injection needle was filled with instant glue while the blood flow was interrupted. The blood flow was then restored and the surgical wound was sutured. Neurological symptoms were observed the day following the surgery. The animals were assigned to each treated group at random with respect to the measurements of neurological symptoms, the decrease in body weight from the previous day, and the body weight on that day.
The test compounds used were Example Compound 65, 108, 130, 135 and 137, each of which was administered at a dose of 1.0 mg/kg. Example Compound 65 was administered also at a dose of 0.1 mg/kg. Each compound was orally administered once daily for 10 days starting from the following day of the surgery. Coordinated motor functions were measured 5 times on an accelerated rota-rod (4 to 40 rpm/5 min) 2 weeks after the surgery.
Specifically, FIGS. 11 to 15 show the effect of different compounds 2 weeks after the microsphere injection (rota-rod test standard parameter). The figures show the results of rota-rod tests 2 weeks after the ischemic event in which each compound was orally administered at 1.0 mg/kg once daily for 10 days (Example Compound 65 was administered at 0.1 mg/kg or 1.0 mg/kg). What is shown in the figures is the total time of the 5 measurements on rota-rod as a standard parameter.
***: p<0.0001, Dunnett's multiple range test vs. Vehicle.

spinal cord neurons = assay: Test Example 3: ability to promote the neurite outgrowth of spinal cord neurons; type: cell-based, Wistar rats; details: Compound Conc. = 0.1 μM; % of control, day 3
Procedure: According to the method of Martin G. Hanson Jr. [J. Neurosci., 1998 Sep. 15; 18(18): 7361-71], the spinal cord region was isolated from 15-day embryos of female Wistar rats and the cells were dispersed using the papain dissociation system. Neurons were collected using 6.8% Metrizamide density gradient and were suspended in 2% FBS+Leibovitz's −15 medium so that the density of the cells will be 2×10^3 cells/well/200 μL. 200 μL of the cell suspension was inoculated on a poly-D-lysine/laminin-coated 96 well plate and the plate was incubated in an incubator at 37° C. Test compounds were added 1 hour after seeding of cells.
On day 3 of the incubation period, neurons were stained with Calcein-AM and the lengths of neurites were determined using IN Cell Analyzer (GE Healthcare Bioscience).
The ability (%) of each test compound to promote neurite outgrowth was calculated from the following equation: The ability to promote neurite outgrowth (%)=[(measurement with a compound of interest)/(measurement of control)]×100
Example Compounds 65, 71, 74, 92, 130 and 135 were used as test compounds and were each added at a concentration of 0.1 μM.
The results are shown in Table 27. bFGF gives a measurement of about 130 in this test.

[3] = test system: critical limb ischemia model (left femoral artery excised); assay: Test Example 4: lower limb ischemia (critical limb ischemia) model in mice; type: in vivo, Balb/c mice; details: oral once daily 0.1 or 1.0 mg/kg for 10 days from femoral artery excision, vs Vehicle
Procedure: According to the method of Ichiro Masaki [Circ Res. 90; 966-973 (2002)], the left femoral artery of Balb/c mice was excised to establish a model of critical limb ischemia (n=29 to 30).
Test compounds used were Example Compounds 65, 92, 114, 130, 135 and 136, each of which was orally administered once daily at a dose of 0.1 mg/kg or 1.0 mg/kg for 10 days starting from the day of femoral artery excision.
The results are shown in FIGS. 1 to 6 in which FIGS. 1, 2, 3, 4, 5 and 6 show the results of Example Compounds 65, 92, 114, 130, 135 and 136, respectively.
In the figures, a thick solid line indicates a Vehicle group, a thin dotted line indicates a group administered 0.1 mg/kg/day of each compound, and a thin solid line indicates a group administered 1.0 mg/kg/day of each compound.
*: P<0.05, **: P<0.01, ***: P<0.001 vs Vehicle by Wilcoxon's test.

chemokine receptor CCR3 = molecular target: T1, chemokine receptor CCR3 (Homo sapiens, UniProt P51677); assay: Affinity to chemokine receptor CCR3; type: binding; details: at a concentration of 10 μM
T1 sequence (P51677 1-355): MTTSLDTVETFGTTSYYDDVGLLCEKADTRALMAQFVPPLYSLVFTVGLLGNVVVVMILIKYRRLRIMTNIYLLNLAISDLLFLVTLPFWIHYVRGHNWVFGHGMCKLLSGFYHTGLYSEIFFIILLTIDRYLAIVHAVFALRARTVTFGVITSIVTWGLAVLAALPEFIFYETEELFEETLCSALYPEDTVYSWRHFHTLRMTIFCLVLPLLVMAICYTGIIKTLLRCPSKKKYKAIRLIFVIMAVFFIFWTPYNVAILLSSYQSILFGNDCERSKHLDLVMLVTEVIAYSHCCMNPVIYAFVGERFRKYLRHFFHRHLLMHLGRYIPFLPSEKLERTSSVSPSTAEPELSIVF
Source text: Although the compounds of the present invention are novel compounds, compounds having a partly similar skeleton are described, for example, in Published Japanese Translation of PCT International Application No. 2003-507456, WO 01/79170 and WO 00/23076.

Compound	activity at 0.3 µM [1] [%]	activity at 3 µM (hippocampal neurons) [%]	coordinated motor functions, total time of 5 measurements on rota-rod [2]	Promotion of spinal cord neurite outgrowth (%) (spinal cord neurons)	survival rate of lower limb [3]	affinity to chemokine receptor CCR3 (chemokine receptor CCR3) [%]	activity at 3 µM ([1]; Compound Conc. = 3 μM) [%]
Cc1cnc(N)nc1NCC(=O)N(C)C1CCN(CC2CC2)CC1 [Compound 108, 2-(2-amino-5-methylpyrimidine-4-ylamino)-N-(1-(cyclopropylmethyl)piperidine-4-yl)-N-methylacetamide]	114	122	highly effective in ameliorating ischemic cerebral infarction				
CNc1nccnc1OCC(=O)N(C)C1CCN(Cc2ccccc2)CC1.Cl [Compound 130, N-(1-benzylpiperidine-4-yl)-N-methyl-2-(3-(methylamino)pyrazine-2-yloxy)acetamide hydrochloride]	118	143	highly effective in ameliorating ischemic cerebral infarction	128	increased survival rate	3.5	
CN(C(=O)COc1ccc(Cl)nn1)C1CCN(C(=O)C2CC2)CC1 [Compound 135, 2-(6-chloropyridazine-3-yloxy)-N-(1-(cyclopropanecarbonyl)piperidine-4-yl)-N-methylacetamide]		131	highly effective in ameliorating ischemic cerebral infarction	121	increased survival rate	22	140
CN(C(=O)COc1ccc(Cl)nn1)C1CCN(Cc2ccccc2)CC1 [Compound 137, N-(1-benzylpiperidine-4-yl)-2-(6-chloropyridazine-3-yloxy)-N-methylacetamide]			highly effective in ameliorating ischemic cerebral infarction				
